In test [1] the target is T1, Olfactory receptor 5K1 (Homo sapiens) (UniProt Q8NHB7).
T1 sequence (whole entry): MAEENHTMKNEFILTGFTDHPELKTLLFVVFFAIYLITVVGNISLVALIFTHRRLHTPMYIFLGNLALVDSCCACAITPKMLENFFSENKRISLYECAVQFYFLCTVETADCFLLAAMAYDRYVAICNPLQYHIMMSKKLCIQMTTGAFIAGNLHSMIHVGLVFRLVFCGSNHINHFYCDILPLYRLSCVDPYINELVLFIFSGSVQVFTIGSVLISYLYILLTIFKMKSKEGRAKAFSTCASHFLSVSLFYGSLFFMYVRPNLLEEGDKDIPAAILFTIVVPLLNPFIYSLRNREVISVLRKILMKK
The experiment in a line: Antagonist activity at human OR5K1 expressed in HEK293 cells assessed as inhibition of 2,6-dimethylpyrazine-induced response at 100 uM by luciferase reporter gene assay. The class given is functional, cell-based. For orientation: Reporter assays use an easily measured gene product as a stand-in for the process of interest.

A further test is filed under the species Homo sapiens. As to the kind of experiment: Inhibition of 2,6-dimethylpyrazine-induced odor assessed as strength of odor on cloth smelled by subjects. The class given is functional, organism-based.

The structures appear in SMILES notation. Activity calls are given as the source filed them. No cut-off for these calls is given here.

In general, inhibition refers to the relative decrease from the control value, in per cent. Consider `CC(=O)c1c(C)c([N+](=O)[O-])c(C(C)(C)C)c([N+](=O)[O-])c1C`, for which the inhibition in test [1] was above 40%.
The same measure, in the same setting: for `CC12CCC(C3(CCCC3)C1=O)C2(C)C` (configuration not stated) the value was above 50%; for `CC(C)CCCC(C)CCO` (configuration not stated), above 50%.
Still for that read-out and setting: for `C=CCc1ccc(O)c(OC)c1` the value was above 40%.
On the same count and under the same terms, for `CC(C)=CCC/C(C)=C/C=O` the value was above 75%; for `CC/C(=C\CC1CC=C(C)C1(C)C)CO` (configuration not stated), above 75%; for `CC1(C)CCCC2(C)C1CCC1(C)OCCC12` (configuration not stated), above 50%.
For the compound `CC(C=O)c1ccccc1` (configuration not stated), the inhibition in test [1] is above 50%.
Same read-out and setting: for `CCCCCC1=C(C)CCC1=O` the value was above 40%.
As to `CC1=CC(O)CC(C)C2CC(=C(C)C)CC12` (configuration not stated), in test [1], the inhibition was above 75%.
Turning to `CC(C)=CCC/C(C)=C/CO`, the inhibition in test [1] is above 40%. For the same compound, the inhibition result in the test listed under Homo sapiens was “Active”.
Regarding `CC(=O)c1cc(C(C)(C)C)cc2c1CCC2(C)C`, the inhibition in test [1] was above 40%.
On the same count and under the same terms, for `O=C1CCCCC/C=C\CCCCCCCCO1` the value was above 50%.
Take `CC(C=O)Cc1ccc(C(C)C)cc1` (configuration not stated): in test [1], the inhibition was above 75%.
On the same count and under the same terms, for `CC(C)[C@@H]1CC[C@@H](C)C[C@H]1O` the value was above 50%; for `CC(C)=CCCC(C)CC=O` (configuration not stated), above 50%; for `CC1=CCC(C(C)CC2CCCC2=O)CC1` (configuration not stated), above 50%.
The same measure, in the same setting: for `C[C@@H]1CCCCCCCCCCCCC(=O)C1` the value was above 50%; for `O=C(OCCc1ccccc1)c1ccccc1O`, above 75%; for `CCCCCC/C(C=O)=C\c1ccccc1`, above 50%.
`C=CCCC(=O)C1=CCCC(C)(C)C1`: the inhibition in test [1] is above 40%. Moreover, in the test listed under Homo sapiens, the inhibition result is “Active”.
For the compound `CCCCCCOC(=O)c1ccccc1O`, the inhibition in test [1] was above 40%.
On the same count and under the same terms, for `CC(=O)c1cc2c(cc1C)C(C)(C)C(C)CC2(C)C` (configuration not stated) the value was above 75%.
As for `CCCCC/C(C=O)=C\c1ccccc1`, the inhibition in test [1] was above 75%.
With `CC1C/C=C/CCCCCCCCCC(=O)C1` (configuration not stated), in test [1], the inhibition is above 50%. The inhibition entry in the test listed under Homo sapiens is “Active”.
On to `CC(C=O)C1CCCCC1` (configuration not stated), for which the inhibition in test [1] was above 50%.
With `CCC(O)COC1CCCCC1C(C)(C)C` (configuration not stated), the inhibition in test [1] is above 75%. In the test listed under Homo sapiens, the inhibition result was “Active”.
Consider `CCOCOC1CCCCCCCCCCC1`, for which, in test [1], the inhibition was above 50%.
With `O=C1CCCCCCCCCCCCCCO1`, the inhibition in test [1] was above 40%.
`CC(=O)/C=C/C1=C(C)CCCC1(C)C`: the inhibition in test [1] was above 75%. Further, the inhibition entry in the test filed under Homo sapiens was “Active”.
Taken in the same sequence, the figures for `CC1=CCC(C/C=C(\C)CO)C1(C)C` (configuration not stated) were above 50% and “Active”.
With `CO[C@]1(C)CC[C@H]2C(C)(C)[C@@H]3C[C@@]21CC[C@H]3C`, the inhibition in test [1] is above 50%.
As for `CC/C=C(\C)C(O)CCCCC` (configuration not stated), in test [1], the inhibition was above 75%. In the test filed under Homo sapiens, the inhibition result is “Active”.
As for `O=C/C=C/c1ccccc1`, in test [1], the inhibition is above 50%.
For `CC(=O)C1(C)CC2=C(CCCC2(C)C)CC1C` (configuration not stated), in test [1], the inhibition was above 75%.
Turning to `CC(C=O)Cc1ccc2c(c1)OCO2` (configuration not stated), in test [1], the inhibition was above 40%. The inhibition result in the test listed under Homo sapiens is “Active”.
On to `C=C(OCC)C1C(C)(C)CC(=O)CC1(C)C`, for which, in test [1], the inhibition was above 50%.
As to `CC(=O)/C(C)=C/C1C(C)=CCCC1(C)C` (configuration not stated), the inhibition in test [1] was above 50%. For the same compound, the inhibition entry in the test listed under Homo sapiens is “Active”.
Consider `CC(=O)O[C@]1(C)CC[C@H]2C(C)(C)[C@@H]3C[C@@]21CC[C@H]3C`, for which, in test [1], the inhibition was above 50%.
With `C/C=C/c1ccc(OCc2ccccc2)c(OC)c1`, in test [1], the inhibition was above 50%.
The same measure, in the same setting: for `CC1=CC(C)C(C)C(C=O)C1` (configuration not stated) the value was above 40%; for `O=C1CCCCCCCCCCCC(=O)OCCO1`, above 40%.
For the compound `CC(C=O)Cc1ccc(C(C)(C)C)cc1` (configuration not stated), in test [1], the inhibition is above 50%. For the same compound, in the test filed under Homo sapiens, the inhibition entry is “Active”.
Regarding `CC(C)=CCCC(C)CCOCC=O` (configuration not stated), the inhibition in test [1] was above 40%.
`CCCCCCCC1CCC(=O)O1` (configuration not stated): the inhibition in test [1] was above 50%. Besides, the inhibition entry in the test listed under Homo sapiens is “Active”.
Regarding `CC1=CC(C)C(C=O)CC1` (configuration not stated), the inhibition in test [1] was above 40%. Moreover, the inhibition result in the test listed under Homo sapiens is “Active”.
The matching figures for `C/C=C/C(=O)C1=C(C)C=CCC1(C)C`: above 40% and “Active”.
Take `C[C@@H]1[C@@H]2C(=O)C[C@H]3[C@@H]2C(C)(C)CCC[C@]13C`: the inhibition in test [1] is above 75%.
The same measure, in the same setting: for `CC(=O)C1=C(C)[C@@H]2C[C@@]3(C1)[C@H](C)CC[C@H]3C2(C)C` the value was above 50%.
With `OCCCCCCc1ccccc1`, the inhibition in test [1] is above 40%.
Same read-out and setting: for `Cc1ccc(C(C)C)c(O)c1` the value was above 75%.
Take `CC(=O)c1ccc2ccccc2c1`: the inhibition in test [1] is above 50%. Further, the inhibition entry in the test listed under Homo sapiens is “Active”.
As to `CC(C)[C@H]1CC[C@@H](CO)CC1`, in test [1], the inhibition is above 40%.
